Assay in all cases: NCI-60 cell line screen, 48 h
In test [1] the test system is A549 NSCLC.
In test [2] the test system is MALME-3M melanoma.
The test system of test [3] is MDA-MB-231 breast.
The subject of test [4] is MOLT-4 leukemia.
In test [5] the test system is NCI-H23 lung.
Test [6] deals with OVCAR-4 ovarian.
The test system of test [7] is OVCAR-5 ovarian.
Test [8] has as its system RPMI-8226 leukemia.
Test [9] has as its system SK-MEL-2 melanoma.
The subject of test [10] is SN12C renal.

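Compound exposure: 48 hours, 5 concentrations, 96-well plates. The concentration for 50% growth inhibition is given as GI50. TGI: concentration producing complete growth inhibition.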 Where a SMILES comes first, the peptide text is derived from it. [ ]: non-standard residue; d: D form. Ac5c = NC1(C(=O)O)CCCC1 Bounds are passed on as bounds.

As to `CC(=O)c1c(C)[nH]c(-c2nc3ccc(N4CCN(C)CC4)cc3[nH]2)c1-c1ccc(OCC2CCOCC2)cc1`, the GI50 was 0.714 µM in test [1]; 0.72 µM in test [2]; 0.946 µM in [3]; 1.63 µM in test [4]; 1.32 µM in [5]; 0.803 µM in [6]. Further, the GI50 in test [7] was 1.62 µM; in test [8], 0.251 µM; in test [9], 2 µM; in test [10] it was 1.31 µM. For the same molecule, the TGI came to 17.8 µM in test [1]; 2.57 µM in test [2]; 16.9 µM in [3]; 20.6 µM in test [4]; 18.3 µM in test [5]; 32.9 µM in [6]. In addition, the TGI stood at 32.2 µM in test [7], 1.42 µM in [8], 16.5 µM in test [9] and 17.4 µM in [10].

Turning to `O=C(/C=C/c1ccc(F)cc1)c1ccc(Cl)cc1Cl`, the GI50 was 33.5 µM in test [1]; > 100 µM in test [2]; > 100 µM in [3]; 26.2 µM in test [4]; 37.2 µM in test [5]; 82.9 µM in test [6]. Further, the GI50 in [7] is 32.4 µM; in test [8], 17.5 µM; in [9], > 100 µM; in test [10], 61.8 µM. For the same molecule, the TGI is > 100 µM in test [1]; > 100 µM in test [2]; > 100 µM in test [3]; 63.9 µM in [4]; > 100 µM in test [5]; > 100 µM in test [6]. For the same molecule, the TGI is 96.5 µM in test [7], 39.5 µM in test [8], > 100 µM in test [9] and > 100 µM in test [10].

Take `CC(=O)Nc1ccc(C(=O)NN2C(=O)C(Cl)C2c2ccc(Cl)cc2)cc1` (centres undefined): the TGI is > 100 µM in test [1]; > 65.8 µM in [2]; 70.3 µM in test [3]; > 100 µM in test [4]; > 100 µM in test [5]; > 100 µM in [6]. Moreover, the TGI in test [7], in test [8], in [9] and in [10] was > 100 µM in each case.

Regarding `O=C(O[C@H]1CN[C@H](C#Cc2cc3ncnc(Nc4ccc5c(ccn5Cc5cc(F)ccc5F)c4)c3s2)C1)N1CCOCC1`, the GI50 in test [1] is 3.07 µM; in test [2], 4.06 µM; in test [3], 1.97 µM; in [4] it was 6.1 µM; in test [5], 4.25 µM; in test [6], 4.51 µM. The GI50 was 1.07 µM in test [7], 4.65 µM in [8], 5.35 µM in test [9] and 2.57 µM in [10]. The TGI was 10.1 µM in test [1]; 9.41 µM in [2]; 9.81 µM in [3]; > 25 µM in test [4]; 14.6 µM in test [5]; 16.5 µM in test [6]. Moreover, the TGI in [7] is 11.1 µM; in test [8] it was 13.7 µM; in test [9], 12.7 µM; in test [10], 12.8 µM.

In the case of `CC(=O)CC(=O)Nc1ccc2ccccc2c1`, the TGI in [1], in test [2], in test [3], in test [4], in test [5] and in test [6] was > 100 µM throughout. For the same molecule, the TGI in test [7], in test [8], in [9] and in [10] was > 100 µM each time.

As to `NC1(C(=O)NC2(C(=O)O)CCCC2)CCCC1` (H-[Ac5c]-[Ac5c]-OH), the TGI in test [1], in test [2], in [3], in test [4], in test [5] and in test [6] was > 100 µM throughout. The TGI in test [7], in [8], in test [9] and in [10] was > 100 µM in each case.

As for `COc1cc(C(=O)/C(C)=C/c2c[nH]c3ccccc23)cc(OC)c1OC`, the GI50 in test [1] was 0.0041 µM; in test [2], 14.2 µM; in test [3] it was 0.0039 µM; in test [4], 0.00546 µM; in test [5], 0.00516 µM; in test [6], 0.0249 µM. Besides, the GI50 in [7] is 0.0842 µM; in test [8], 0.00482 µM; in test [9] it was 0.0123 µM. Also, the TGI in test [1] was > 100 µM; in test [2] it was > 100 µM; in test [3] it was > 100 µM; in [4], 37 µM; in test [5] it was > 100 µM; in [6], > 100 µM. For the same molecule, the TGI in test [7] was > 100 µM; in test [8], 4.55 µM; in test [9], 15.2 µM; in test [10] it was > 100 µM.

The values are drawn from PubChem BioAssay (NCI).
